Reference: patent US20250248402A1, “HERBICIDAL COMPOSITIONS AND METHODS FOR CONTROLLING WEEDS” (UPL Mauritius Limited, priority 2024, published 2025)

Legend:
[1] = tested on: common waterhemp, Non-Target Site Resistant "ACR" Population; experiment: Greenhouse dose-response, effective dose on atrazine-resistant waterhemp; format: in vivo, Amaranthus tuberculatus; settings: 13 days after treatment, visual scale 0-100
[2] = tested on: common waterhemp, Non-Target Site Resistant "MCR" Population; experiment: as above; format: in vivo, Amaranthus tuberculatus; settings: 13 days after treatment, visual scale 0-100

CCNc1nc(Cl)nc(NC(C)C)n1 [Atrazine (480 g/L FL), Atrazine]
ED 20 Estimate [1]: 6.782 g ai/ha
ED 80 Estimate [1]: 768.664 g ai/ha
ED 20 Estimate [2]: 20.856 g ai/ha
ED 80 Estimate [2]: 793.705 g ai/ha
